Results taken from paper PMC6717788 (The Korean Journal of Physiology & Pharmacology : …, 2019).

Key:
[1] = biological target: T1, Slo3 (potassium channel subfamily U member 1, KCNU1) (Homo sapiens, UniProt A8MYU2); assay: whole-cell patch clamp, HEK293 cells, dose response; type: cell-based
T1 sequence (A8MYU2 1-1149): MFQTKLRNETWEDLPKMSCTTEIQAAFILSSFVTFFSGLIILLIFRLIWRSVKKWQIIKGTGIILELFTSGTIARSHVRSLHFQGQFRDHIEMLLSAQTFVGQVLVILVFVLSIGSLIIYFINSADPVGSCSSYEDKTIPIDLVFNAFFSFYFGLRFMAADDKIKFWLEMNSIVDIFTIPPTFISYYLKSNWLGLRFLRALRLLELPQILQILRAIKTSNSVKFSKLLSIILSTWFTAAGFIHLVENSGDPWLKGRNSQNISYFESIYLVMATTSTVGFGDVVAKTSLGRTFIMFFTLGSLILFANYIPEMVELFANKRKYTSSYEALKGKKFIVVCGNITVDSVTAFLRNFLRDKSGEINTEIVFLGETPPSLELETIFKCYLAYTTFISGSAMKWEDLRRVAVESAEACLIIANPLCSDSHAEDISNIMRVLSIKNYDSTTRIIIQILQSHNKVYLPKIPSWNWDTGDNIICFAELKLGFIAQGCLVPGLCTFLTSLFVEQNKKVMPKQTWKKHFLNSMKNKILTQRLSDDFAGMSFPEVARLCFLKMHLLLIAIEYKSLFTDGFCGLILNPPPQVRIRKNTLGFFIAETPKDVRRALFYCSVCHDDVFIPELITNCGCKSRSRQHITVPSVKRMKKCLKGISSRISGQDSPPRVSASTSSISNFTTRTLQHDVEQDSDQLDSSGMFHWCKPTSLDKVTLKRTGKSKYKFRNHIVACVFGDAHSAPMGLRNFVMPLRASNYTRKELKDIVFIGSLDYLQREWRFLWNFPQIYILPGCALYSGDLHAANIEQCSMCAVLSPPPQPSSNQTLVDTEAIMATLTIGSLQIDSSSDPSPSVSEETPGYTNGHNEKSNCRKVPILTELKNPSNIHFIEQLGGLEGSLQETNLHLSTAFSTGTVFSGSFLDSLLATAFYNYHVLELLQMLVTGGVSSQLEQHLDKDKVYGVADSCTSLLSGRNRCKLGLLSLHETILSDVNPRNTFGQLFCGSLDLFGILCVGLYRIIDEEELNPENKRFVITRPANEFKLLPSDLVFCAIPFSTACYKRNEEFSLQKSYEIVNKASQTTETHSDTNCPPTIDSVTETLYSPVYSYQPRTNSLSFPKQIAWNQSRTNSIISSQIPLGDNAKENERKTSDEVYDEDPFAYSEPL
T1 sequence (Q8N7C0 24-313 partner): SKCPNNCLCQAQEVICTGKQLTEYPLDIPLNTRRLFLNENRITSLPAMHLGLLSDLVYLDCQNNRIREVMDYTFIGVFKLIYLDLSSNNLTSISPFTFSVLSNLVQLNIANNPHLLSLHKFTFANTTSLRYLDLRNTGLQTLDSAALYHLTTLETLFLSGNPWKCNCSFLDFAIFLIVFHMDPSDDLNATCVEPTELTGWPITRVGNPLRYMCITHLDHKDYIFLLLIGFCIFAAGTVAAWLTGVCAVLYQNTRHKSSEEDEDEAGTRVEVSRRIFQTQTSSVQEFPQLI

[2] = biological target: T1, Slo3 (potassium channel subfamily U member 1, KCNU1); assay: whole-cell patch clamp, HEK293 cells, […] single dose; type: cell-based; settings: HEK293, read-out: % inhibition at 50 μM

Row | inhibition at 50 µM [2] [%] | Compound | EC50 [1] [µM]
1 | – | O=c1c(O)c(-c2ccc(O)c(O)c2)oc2cc(O)cc(O)c12 [quercetin] | 11.3
2 | 53.5 ± 3.15 | O=c1cc(-c2ccc(O)c(O)c2)oc2cc(O)cc(O)c12 [luteolin] | –
3 | 42.1 ± 2.16 | O=c1c(O)c(-c2ccc(O)cc2O)oc2cc(O)cc(O)c12 [morin] | –
